Measured values as given in ChEMBL document CHEMBL4673385, “Discovery of Potent Inhibitors of Streptococcus mutans Biofilm with Antivirulence Activity” (ACS Med Chem Lett, 2021).
In brackets after ≈: the same amount, converted by molar mass. Activity calls are given as the source filed them. Unless noted, the calls are words filed in the database; no cut-off is given here.

Tests used:
[1] = molecular target: T1, Glucosyltransferase-I (Streptococcus mutans serotype c (strain ATCC 700610 / UA159)) (UniProt P08987); assay: Inhibition of GtfB in Streptococcus mutans UA159 assessed as reduction in glucans level by Coomassie blue dye based SDS-PAGE analysis
T1 sequence (whole entry): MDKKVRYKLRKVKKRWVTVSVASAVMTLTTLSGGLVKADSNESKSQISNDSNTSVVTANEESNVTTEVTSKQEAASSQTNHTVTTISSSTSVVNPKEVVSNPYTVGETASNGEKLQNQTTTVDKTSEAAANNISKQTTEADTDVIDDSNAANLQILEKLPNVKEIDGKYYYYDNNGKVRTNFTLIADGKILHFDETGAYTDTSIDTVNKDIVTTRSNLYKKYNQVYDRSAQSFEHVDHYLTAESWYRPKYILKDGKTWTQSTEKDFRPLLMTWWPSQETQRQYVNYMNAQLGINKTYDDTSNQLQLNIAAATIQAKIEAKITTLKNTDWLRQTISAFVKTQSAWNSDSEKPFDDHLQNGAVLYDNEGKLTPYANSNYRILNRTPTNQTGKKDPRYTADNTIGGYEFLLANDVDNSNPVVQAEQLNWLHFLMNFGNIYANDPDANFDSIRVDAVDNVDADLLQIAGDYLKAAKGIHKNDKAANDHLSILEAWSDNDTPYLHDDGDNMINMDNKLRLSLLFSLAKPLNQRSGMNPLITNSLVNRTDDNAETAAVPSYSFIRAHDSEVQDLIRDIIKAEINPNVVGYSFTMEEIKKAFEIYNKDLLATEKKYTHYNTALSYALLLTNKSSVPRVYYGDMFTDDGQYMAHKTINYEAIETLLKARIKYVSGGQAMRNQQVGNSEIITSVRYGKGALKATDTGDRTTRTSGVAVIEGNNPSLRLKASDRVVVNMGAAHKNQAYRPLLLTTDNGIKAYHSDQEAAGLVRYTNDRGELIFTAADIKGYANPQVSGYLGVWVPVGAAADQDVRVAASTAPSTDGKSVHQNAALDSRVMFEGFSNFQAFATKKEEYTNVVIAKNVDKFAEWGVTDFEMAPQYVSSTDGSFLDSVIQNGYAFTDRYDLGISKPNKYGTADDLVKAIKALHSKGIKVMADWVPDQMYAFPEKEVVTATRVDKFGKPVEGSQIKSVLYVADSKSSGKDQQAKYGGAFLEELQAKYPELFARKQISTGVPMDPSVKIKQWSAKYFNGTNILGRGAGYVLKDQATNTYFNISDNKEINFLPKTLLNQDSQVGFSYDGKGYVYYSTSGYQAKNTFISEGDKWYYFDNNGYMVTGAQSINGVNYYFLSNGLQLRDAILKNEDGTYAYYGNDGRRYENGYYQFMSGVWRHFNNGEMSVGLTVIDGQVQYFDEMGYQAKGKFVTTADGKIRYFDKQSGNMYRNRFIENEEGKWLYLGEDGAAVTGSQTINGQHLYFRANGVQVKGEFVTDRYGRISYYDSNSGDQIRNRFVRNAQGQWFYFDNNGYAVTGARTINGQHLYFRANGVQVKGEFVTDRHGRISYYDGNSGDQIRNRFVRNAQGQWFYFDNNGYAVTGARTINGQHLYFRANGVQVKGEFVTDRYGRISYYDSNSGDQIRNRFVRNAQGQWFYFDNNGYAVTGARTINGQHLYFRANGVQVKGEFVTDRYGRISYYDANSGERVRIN

Streptococcus mutans [2] = assay: Bactericidal activity against Streptococcus mutans UA159 assessed as reduction in bacterial growth at 100 uM after 24 hrs; assay type: functional, organism-based
[3] = Solubility of compound in water; assay type: physicochemical; conditions: water; read-out: solubility
Streptococcus mutans [4] = assay: Antibiofilm activity against Streptococcus mutans UA159 assessed as inhibition of biofilm formation by serial dilution method; assay type: functional, organism-based; conditions: Streptococcus mutans, UA159; read-out: IC50
Streptococcus mutans [5] = assay: Antibiofilm activity against Streptococcus mutans UA159 infected in Fischer 344 rat assessed as proximal surface score at 100 uM topically administered measured after 43 days; assay type: functional, organism-based; conditions: time 43.0 day
Streptococcus mutans [6] = assay: Antibiofilm activity against Streptococcus mutans UA159 infected in Fischer 344 rat assessed as sulcal score at 100 uM topically administered measured after 43 days; assay type: functional, organism-based; conditions: time 43.0 day
Streptococcus mutans [7] = assay: Antibiofilm activity against Streptococcus mutans UA159 infected in Fischer 344 rat assessed as buccal score at 100 uM topically administered measured after 43 days; assay type: functional, organism-based; conditions: time 43.0 day
[8] = Inhibition of Gtf in Streptococcus mutans UA159 assessed as reduction in glucans level by Coomassie blue dye based SDS-PAGE analysis
Streptococcus mutans [9] = assay: Antibiofilm activity against Streptococcus mutans UA159 infected in Fischer 344 rat assessed as reduction in colony forming units at 100 uM topically administered measured after 43 days; assay type: functional, organism-based; conditions: time 43.0 day
Streptococcus gordonii = assay: Bactericidal activity against Streptococcus gordonii DL1 assessed as reduction in bacterial growth at 100 uM after 24 hrs; assay type: functional
Streptococcus sanguinis = assay: Bactericidal activity against Streptococcus sanguinis SK36 assessed as reduction in bacterial growth at 100 uM after 24 hrs; assay type: functional
[10] = Toxicity in Fischer 344 rat infected with Streptococcus mutans UA159 assessed as reduction in body weight at 100 uM topically administered measured after 43 days; conditions: in vivo, topical_or_ocular, 1032 h, time 43 day

inhibition [1]	solubility [3]	IC50 (Streptococcus mutans [4])	IC50 [8]	SMILES	Activity (Streptococcus mutans [2])	Activity (Streptococcus mutans [5])	Activity (Streptococcus mutans [6])	Activity (Streptococcus mutans [7])	Activity (Streptococcus mutans [9])	Activity (Streptococcus gordonii)	Activity (Streptococcus sanguinis)	Activity [10]
Active	< 5 µg/mL	8.6 µM	–	NC(=O)c1cccc(NC(=O)c2cnc3ccccc3c2)c1	inactive	–	–	–	–	–	–	–
Active	15 µg/mL (≈ 39.7 µM)	52.8 µM	–	CC(C)(C)OC(=O)NCc1ccccc1NC(=O)c1cnc2ccccc2c1	inactive	–	–	–	–	–	–	–
Active	–	–	–	O=C(c1ccc(F)cc1)c1ccc(-c2[nH]c(-c3ccc([N+](=O)[O-])cc3O)nc2-c2ccccc2)cc1	–	–	–	–	–	–	–	–
Active	10 µg/mL (≈ 29.3 µM)	16.7 µM	10 µM	NC(=O)c1ccccc1NC(=O)c1cc2cc([N+](=O)[O-])ccc2s1	inactive	Active	Active	Active	inactive	inactive	inactive	–
Active	5 µg/mL (≈ 17.2 µM)	15.3 µM	–	NC(=O)c1ccccc1NC(=O)c1cnc2ccccc2c1	inactive	Active	Active	Active	inactive	inactive	inactive	Non-Toxic
Active	< 5 µg/mL	51.5 µM	–	CC(C)(C)OC(=O)NCc1ccccc1NC(=O)c1cc2cc([N+](=O)[O-])ccc2s1	inactive	–	–	–	–	–	–	–
Active	10 µg/mL (≈ 28.1 µM)	9.6 µM	–	COC(=O)c1ccc(NC(=O)c2cc3cc([N+](=O)[O-])ccc3s2)cc1	inactive	–	–	–	–	–	–	–
